molecular target: T1, human APJ receptor (Homo sapiens, UniProt P35414); experiment: Intracellular cAMP accumulation assay (APJ hcAMP, HTRF); format: cell-based; settings: APJ cAMP EC50 (nM), Table 1; HEK293 cells stably expressing human APJ, forskolin-stimulated cAMP
T1 construct: expressed in transfected cells
T1 sequence (P35414 1-380): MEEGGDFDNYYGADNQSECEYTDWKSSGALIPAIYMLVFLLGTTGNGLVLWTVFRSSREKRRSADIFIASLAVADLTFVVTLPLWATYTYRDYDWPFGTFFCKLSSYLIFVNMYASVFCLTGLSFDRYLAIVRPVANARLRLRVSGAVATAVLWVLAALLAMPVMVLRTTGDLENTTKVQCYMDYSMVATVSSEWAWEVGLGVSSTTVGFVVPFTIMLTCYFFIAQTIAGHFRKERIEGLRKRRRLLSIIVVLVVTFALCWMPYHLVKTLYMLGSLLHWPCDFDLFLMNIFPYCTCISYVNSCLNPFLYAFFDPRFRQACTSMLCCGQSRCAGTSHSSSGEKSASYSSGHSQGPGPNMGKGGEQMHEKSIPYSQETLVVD
Method: Intracellular cAMP Accumulation Assay
HEK293 cells stably expressing human APJ receptor were used to assess the activity of compounds. Cultured cells were detached and resuspended in the cAMP Homogeneous Time-Resolved Fluorescence (HTRF) assay buffer (Cisbio cat; #62AM4PEJ). […] Serial dilutions of a compound together with assay buffer containing […] and 2 μM forskolin were added to each well containing 5,000 cells and incubated for 30 minutes at room temperature. Subsequently, cAMP D2 reagent was added in the lysis buffer followed by the EuK antibody (Cisbio; cat #62AM4PEJ) and incubated for 60 min. The fluorescence emission ratio was measured using fluorometer. The intracellular cAMP concentrations (compound-stimulated inhibition of forskolin-mediated cAMP production) were calculated by extrapolation from a standard curve using known cAMP concentrations. The EC50 values were obtained by fitting the data to a sigmoidal concentration-response curve with variable slope.
The EC50 value of each compound is presented at the end of the example description.
The biological activity of the exemplified compounds of this invention determined by the assay described above is shown at the end of each example.

| Compound | EC50 |
| --- | --- |
| CCCCc1[nH]c(=O)c(C(=O)N(C)CCc2ccc(Cl)cc2)c(O)c1-c1c(OC)cccc1OC [Example 27, 6-butyl-N-[2-(4-chlorophenyl)ethyl]-5-(2,6-dimethoxyphenyl)-2,4-dihydroxy-N-methylpyridine-3-carboxamide] | 10 to 100 nM |
| CCCCc1[nH]c(=O)c(C(=O)N2CC[C@H](c3ccccc3)C2)c(O)c1-c1c(OC)cccc1OC [Example 28, 6-butyl-5-(2,6-dimethoxyphenyl)-3-[(3R)-3-phenylpyrrolidine-1-carbonyl]pyridine-2,4-diol] | 0.01 to 10 nM |
| CCCCc1[nH]c(=O)c(C(=O)N2CC[C@@H](c3ccccc3)C2)c(O)c1-c1c(OC)cccc1OC [Example 29, 6-butyl-5-(2,6-dimethoxyphenyl)-3-[(3S)-3-phenylpyrrolidine-1-carbonyl]pyridine-2,4-diol] | 0.01 to 10 nM |
| CCCCc1[nH]c(=O)c(C(=O)N(CCC)Cc2ccccc2)c(O)c1-c1c(OC)cccc1OC [Example 33, N-benzyl-6-butyl-5-(2,6-dimethoxyphenyl)-2,4-dihydroxy-N-propylpyridine-3-carboxamide] | 100 to 300 nM |

same assay, conditions: Table 1; HEK293 cells stably expressing human APJ, forskolin-stimulated cAMP; read-out: APJ cAMP EC50

| EC50 | Compound |
| --- | --- |
| 10 to 100 nM | CCOCc1nc(O)c(C(=O)N2CC[C@@H](c3ccccc3)C2)c(O)c1-c1c(OC)cccc1OC [Example 25, 5-(2,6-dimethoxyphenyl)-6-(ethoxymethyl)-3-[(3S)-3-phenylpyrrolidine-1-carbonyl]pyridine-2,4-diol] |
| 10 to 100 nM | CCOCc1nc(O)c(C(=O)N2CC[C@H](c3ccccc3)C2)c(O)c1-c1c(OC)cccc1OC [Example 26, 5-(2,6-dimethoxyphenyl)-6-(ethoxymethyl)-3-[(3R)-3-phenylpyrrolidine-1-carbonyl]pyridine-2,4-diol] |
| 10 to 100 nM | CCCCc1nc(O)c(C(=O)N2CCN(c3ccccc3)CC2)c(O)c1-c1c(OC)cccc1OC [Example 30, 6-butyl-5-(2,6-dimethoxyphenyl)-3-(4-phenylpiperazine-1-carbonyl)pyridine-2,4-diol] |
| 0.01 to 10 nM | CCCCc1nc(O)c(C(=O)N2CCN(Cc3ccc(Cl)cc3)CC2)c(O)c1-c1c(OC)cccc1OC [Example 31, 6-butyl-3-{4-[(4-chlorophenyl)methyl]piperazine-1-carbonyl}-5-(2,6-dimethoxyphenyl)pyridine-2,4-diol] |
| 10 to 100 nM | CCCCc1nc(O)c(C(=O)N2CCC(c3nc4ccccc4o3)CC2)c(O)c1-c1c(OC)cccc1OC [Example 32, 3-[4-(1,3-benzoxazol-2-yl)piperidine-1-carbonyl]-6-butyl-5-(2,6-dimethoxyphenyl)pyridine-2,4-diol] |
| 0.01 to 10 nM | CCCCc1nc(O)c(C(=O)N2CC(c3cccc(Cl)c3)C2)c(O)c1-c1c(OC)cccc1OC [Example 34, 6-butyl-3-[3-(3-chlorophenyl)azetidine-1-carbonyl]-5-(2,6-dimethoxyphenyl)pyridine-2,4-diol] |
| 0.01 to 10 nM | CCCCc1nc(O)c(C(=O)N2CCN(C(=O)c3ccccc3)CC2)c(O)c1-c1c(OC)cccc1OC [Example 41, 3-(4-benzoylpiperazine-1-carbonyl)-6-butyl-5-(2,6-dimethoxyphenyl)pyridine-2,4-diol] |
| 0.01 to 10 nM | CCCCc1nc(O)c(C(=O)N2CCN(C(=O)c3cccc(F)c3)CC2)c(O)c1-c1c(OC)cccc1OC [Example 42, 6-butyl-5-(2,6-dimethoxyphenyl)-3-[4-(3-fluorobenzoyl)piperazine-1-carbonyl]pyridine-2,4-diol] |
| 10 to 100 nM | CCCCc1nc(O)c(C(=O)N2CCC(O)(c3ccccc3)CC2)c(O)c1-c1c(OC)cccc1OC [Example 46, 6-butyl-5-(2,6-dimethoxyphenyl)-3-(4-hydroxy-4-phenylpiperidine-1-carbonyl)pyridine-2,4-diol] |
| 10 to 100 nM | CCCCc1nc(O)c(C(=O)N2CCC(O)(c3ccc(Cl)cc3)CC2)c(O)c1-c1c(OC)cccc1OC [Example 47, 6-butyl-3-[4-(4-chlorophenyl)-4-hydroxypiperidine-1-carbonyl]-5-(2,6-dimethoxyphenyl)pyridine-2,4-diol] |
| 0.01 to 10 nM | CCCCc1nc(O)c(C(=O)N2CCN(c3nsc4ccccc34)CC2)c(O)c1-c1c(OC)cccc1OC [Example 49, 3-[4-(1,2-benzothiazol-3-yl)piperazine-1-carbonyl]-6-butyl-5-(2,6-dimethoxyphenyl)pyridine-2,4-diol] |
| 10 to 100 nM | CCCCc1nc(O)c(C(=O)N2CCN(c3nc4ccccc4s3)CC2)c(O)c1-c1c(OC)cccc1OC [Example 54, 3-[4-(1,3-benzothiazol-2-yl)piperazine-1-carbonyl]-6-butyl-5-(2,6-dimethoxyphenyl)pyridine-2,4-diol] |
| 10 to 100 nM | CCCCc1nc(O)c(C(=O)N2CCC(c3cccc(Cl)c3)CC2)c(O)c1-c1c(OC)cccc1OC [Example 56, 6-butyl-3-[4-(3-chlorophenyl)piperidine-1-carbonyl]-5-(2,6-dimethoxyphenyl)pyridine-2,4-diol] |
| 10 to 100 nM | CCCCc1nc(O)c(C(=O)N2CCN(c3cccc(Cl)c3)CC2)c(O)c1-c1c(OC)cccc1OC [Example 58, 6-butyl-3-[4-(3-chlorophenyl)piperazine-1-carbonyl]-5-(2,6-dimethoxyphenyl)pyridine-2,4-diol] |
| 10 to 100 nM | CCCCc1nc(O)c(C(=O)N2CCN(c3ccccn3)CC2)c(O)c1-c1c(OC)cccc1OC [Example 59] |

More lines, now with the values behind:

| Compound | EC50 |
| --- | --- |
| CCCCc1nc(O)c(C(=O)N2CCN(Cc3ccc(F)cc3)CC2)c(O)c1-c1c(OC)cccc1OC [Example 43, 6-butyl-5-(2,6-dimethoxyphenyl)-3-{4-[(4-fluorophenyl)methyl]piperazine-1-carbonyl}pyridine-2.4-diol] | 0.01 to 10 nM |
| CCCCc1nc(O)c(C(=O)N2CCN(Cc3ccccc3F)CC2)c(O)c1-c1c(OC)cccc1OC [Example 44, 6-butyl-5-(2,6-dimethoxyphenyl)-3-{4-[(2-fluorophenyl)methyl]piperiazine-1-carbonyl}pyridine-2.4-diol] | 0.01 to 10 nM |
| CCCCc1nc(O)c(C(=O)N2CCN(Cc3cccc(F)c3)CC2)c(O)c1-c1c(OC)cccc1OC [Example 45, 6-butyl-5-(2,6-dimethoxyphenyl)-3-{4-[(3-fluorophenyl)methyl]piperazine-1-carbonyl}pyridine-2,4-diol] | 0.01 to 10 nM |
| CCCCc1nc(O)c(C(=O)N2CCC(c3nc4ccccc4s3)CC2)c(O)c1-c1c(OC)cccc1OC [Example 48, 3-[4-(1,3-benzothiazol-2-yl)piperidine-1-carbonyl]-6-butyl-5-(2,6-dimethoxyphenyl)pyridine-2,4-diol] | 10 to 100 nM |
| CCCCc1nc(O)c(C(=O)N2CCC3(CC2)OC(=O)Nc2ccccc23)c(O)c1-c1c(OC)cccc1OC [Example 50, 1′-[6-butyl-5-(2,6-dimethoxyphenyl)-2,4-dihydroxypyridine-3-carbonyl]-1,2-dihydrospiro[3,1-benzoxazine-4,4′-piperidine]-2-one] | 10 to 100 nM |
| CCCCc1nc(O)c(C(=O)N2CCN(c3nc4ccccc4o3)CC2)c(O)c1-c1c(OC)cccc1OC [Example 51, 3-[4-(1,3-benzoxazol-2-yl)piperazine-1-carbonyl]-6-butyl-5-(2,6-dimethoxyphenyl)pyridine-2,4-diol] | 10 to 100 nM |
| CCCCc1nc(O)c(C(=O)N2CCN(c3nnnn3-c3ccccc3)CC2)c(O)c1-c1c(OC)cccc1OC [Example 52, 6-butyl-5-(2,6-dimethoxyphenyl)-3-[4-(1-phenyl-1H-1,2,3,4-tetrazol-5-yl)piperazine-1-carbonyl]pyridine-2,4-diol] | 0.01 to 10 nM |
| CCCCc1nc(O)c(C(=O)N2CCCN(c3nnnn3-c3ccccc3)CC2)c(O)c1-c1c(OC)cccc1OC [Example 53, 6-butyl-5-(2,6-dimethoxyphenyl)-3-[4-(1-phenyl-1H-1,2,3,4-tetrazol-5-yl)-1,4-diazepane-1-carbonyl]pyridine-2,4-diol] | 10 to 100 nM |
| CCCCc1nc(O)c(C(=O)N2CCC(c3c[nH]cn3)CC2)c(O)c1-c1c(OC)cccc1OC [Example 55, 6-butyl-5-(2,6-dimethoxyphenyl)-3-[4-(1H-imidazol-4-yl)piperidine-1-carbonyl]pyridine-2,4-diol] | 10 to 100 nM |
| CCCCc1nc(O)c(C(=O)N2CCN(c3ccccc3Cl)CC2)c(O)c1-c1c(OC)cccc1OC [Example 57, 6-butyl-3-[4-(2-chlorophenyl)piperazine-1-carbonyl]-5-(2,6-dimethoxyphenyl)pyridine-2,4-diol] | 10 to 100 nM |
| CCCCc1nc(O)c(C(=O)N2CCN(c3nc(-c4ccccc4)ns3)CC2)c(O)c1-c1c(OC)cccc1OC [Example 60, 6-butyl-5-(2,6-dimethoxyphenyl)-3-[4-(3-phenyl-1,2,4-thiadiazol-5-yl)piperazine-1-carbonyl]pyridine-2,4-diol] | 10 to 100 nM |
| CCCCc1nc(O)c(C(=O)N2CCC(N3CCCC3)CC2)c(O)c1-c1c(OC)cccc1OC [Example 61, 6-butyl-5-(2,6-dimethoxyphenyl)-3-[4-(pyrrolidin-1-yl)piperidine-1-carbonyl]pyridine-2,4-diol] | 10 to 100 nM |
